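Interpolation was linear, between the two tested concentrations surrounding the appropriate level; five concentrations were tested over 48 hours in 96-well plates. Definition used: TGI = concentration required for complete inhibition of growth.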 Bounds are passed on as bounds.

Some test systems named below: UACC-62 melanoma; M19-MEL melanoma; HOP-92 NSCLC; U251 CNS; K-562 leukemia; HCT-116 colon; HOP-62 NSCLC; OVCAR-8 ovarian; SNB-75 CNS; SK-MEL-28 melanoma; NCI-H23 lung; SNB-19 CNS; OVCAR-4 ovarian; MALME-3M melanoma; RPMI-8226 leukemia; SF-295 CNS; EKVX NSCLC; COLO 205 colon; KM12 colon; OVCAR-3 ovarian.
Holding throughout (test): NCI anticancer screen, dose series, 48 h

Take `O=C(O)c1ccc(Nc2c3ccccc3nc3ccccc23)cc1`: the TGI in the assay on UACC-62 melanoma, with M19-MEL melanoma, with HOP-92 NSCLC, in the assay on U251 CNS, in the assay with K-562 leukemia and in the assay with HCT-116 colon was over 100 µM throughout. Also, the TGI in the assay with HOP-62 NSCLC, with OVCAR-8 ovarian, with SNB-75 CNS, with SK-MEL-28 melanoma, with NCI-H23 lung and in the assay on SNB-19 CNS was over 100 µM in each case. The TGI with OVCAR-4 ovarian, in the assay on MALME-3M melanoma, in the assay on RPMI-8226 leukemia, in the assay with SF-295 CNS, with EKVX NSCLC and in the assay on COLO 205 colon was over 100 µM throughout. Besides, the TGI with KM12 colon and with OVCAR-3 ovarian was over 100 µM throughout.

As for `O=C1C(Cl)N(c2ccc(Cl)cc2)C1c1c[nH]c2ccccc12` (stereo not given), the TGI in the assay with UACC-62 melanoma came to 68.8 µM; in the assay on M19-MEL melanoma, 98.4 µM; in the assay on HOP-92 NSCLC, 45.3 µM; in the assay with U251 CNS, 25.7 µM; in the assay with K-562 leukemia, 73.3 µM; in the assay on HCT-116 colon, 28.2 µM. Further, the TGI in the assay on HOP-62 NSCLC was 33.7 µM; with OVCAR-8 ovarian it was over 100 µM; in the assay on SNB-75 CNS, over 100 µM; with SK-MEL-28 melanoma, 96.5 µM; in the assay with NCI-H23 lung it was 62.8 µM; with SNB-19 CNS it was over 100 µM. In addition, the TGI is over 100 µM in the assay with OVCAR-4 ovarian; 25.6 µM in the assay with MALME-3M melanoma; over 100 µM with RPMI-8226 leukemia; 31.5 µM in the assay with SF-295 CNS; 32.5 µM in the assay on EKVX NSCLC; 47.8 µM in the assay on COLO 205 colon. Further, the TGI was over 100 µM in the assay with KM12 colon and 36.1 µM in the assay with OVCAR-3 ovarian.

The values are drawn from PubChem BioAssay (NCI).
